# Reference: ChEMBL document CHEMBL1201862, “PubChem BioAssay data set” (2004)
# Activity calls are given as the source filed them.
# How the values were obtained:
# HEK293 [1] = test: cells; format: functional, cell-based; conditions: Homo sapiens
# HEK293 [2] = test: inhibition of NOD1-driven NF-kB reporter – cell-based, luminescence, uHTS, primary screen (AID 1578); format: functional; conditions: Homo sapiens
# [3] = target: Nucleotide-binding oligomerization domain-containing protein 2 (Homo sapiens, UniProt Q9HC29); test: inhibition of NOD2-driven NF-kB reporter – cell-based, luminescence, uHTS, HEK293 (AID 1566); format: functional
# [4] = target: DNA damage-inducible transcript 3 protein (Mus musculus, UniProt P35639); format: functional, Cricetulus griseus
# Protein RecA = target: T1, Protein RecA (Mycobacterium tuberculosis, UniProt P9WHJ3); test: Fluorescence Cell-Free Homogeneous Dose Retest to Identify Inhibitors of RecA-Intein Splicing Activity. [Related pubchem assays (depositor defined):AID2097, AID2223, AID489010, AID492950]; format: functional
# T1 sequence (P9WHJ3 whole entry): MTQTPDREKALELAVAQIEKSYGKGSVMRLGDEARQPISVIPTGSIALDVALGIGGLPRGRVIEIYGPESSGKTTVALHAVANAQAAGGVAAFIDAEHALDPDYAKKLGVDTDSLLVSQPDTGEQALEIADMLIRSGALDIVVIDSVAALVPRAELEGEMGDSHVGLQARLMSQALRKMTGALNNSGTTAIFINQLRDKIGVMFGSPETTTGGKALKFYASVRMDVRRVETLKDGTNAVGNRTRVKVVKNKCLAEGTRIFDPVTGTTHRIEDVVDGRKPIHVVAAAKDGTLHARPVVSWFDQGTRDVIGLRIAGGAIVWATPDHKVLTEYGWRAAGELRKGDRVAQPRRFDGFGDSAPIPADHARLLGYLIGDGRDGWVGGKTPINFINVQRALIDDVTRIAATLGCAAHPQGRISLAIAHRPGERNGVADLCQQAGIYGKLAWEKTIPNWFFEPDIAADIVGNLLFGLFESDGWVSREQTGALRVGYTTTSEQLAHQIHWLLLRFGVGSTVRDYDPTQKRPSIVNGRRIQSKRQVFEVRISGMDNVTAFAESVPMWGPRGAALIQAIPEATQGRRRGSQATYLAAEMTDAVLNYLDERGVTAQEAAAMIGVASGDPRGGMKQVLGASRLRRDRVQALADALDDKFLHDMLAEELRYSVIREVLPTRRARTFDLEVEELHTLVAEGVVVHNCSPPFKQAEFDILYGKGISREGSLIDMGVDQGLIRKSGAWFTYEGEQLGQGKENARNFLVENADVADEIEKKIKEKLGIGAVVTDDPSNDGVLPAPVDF
# HEK293 [5] = test: NOD2 signaling inhibitors in MDP-stimulated cells, cell-based, uHTS, luminescence (AID 2001); format: functional; conditions: Homo sapiens
# [6] = DRD fibroblast viability loss – cell-based, non-viral oncogenic, luminescence, dose response (AID 1934); format: functional; conditions: Homo sapiens
# [7] = target: T2, Replicative DNA helicase DnaB (Mycobacterium tuberculosis, UniProt P9WMR3); test: DnaB intein splicing inhibitors, dose response, biochemical, cell-free fluorescence (AID 449749); format: functional
# T2 sequence (P9WMR3 whole entry): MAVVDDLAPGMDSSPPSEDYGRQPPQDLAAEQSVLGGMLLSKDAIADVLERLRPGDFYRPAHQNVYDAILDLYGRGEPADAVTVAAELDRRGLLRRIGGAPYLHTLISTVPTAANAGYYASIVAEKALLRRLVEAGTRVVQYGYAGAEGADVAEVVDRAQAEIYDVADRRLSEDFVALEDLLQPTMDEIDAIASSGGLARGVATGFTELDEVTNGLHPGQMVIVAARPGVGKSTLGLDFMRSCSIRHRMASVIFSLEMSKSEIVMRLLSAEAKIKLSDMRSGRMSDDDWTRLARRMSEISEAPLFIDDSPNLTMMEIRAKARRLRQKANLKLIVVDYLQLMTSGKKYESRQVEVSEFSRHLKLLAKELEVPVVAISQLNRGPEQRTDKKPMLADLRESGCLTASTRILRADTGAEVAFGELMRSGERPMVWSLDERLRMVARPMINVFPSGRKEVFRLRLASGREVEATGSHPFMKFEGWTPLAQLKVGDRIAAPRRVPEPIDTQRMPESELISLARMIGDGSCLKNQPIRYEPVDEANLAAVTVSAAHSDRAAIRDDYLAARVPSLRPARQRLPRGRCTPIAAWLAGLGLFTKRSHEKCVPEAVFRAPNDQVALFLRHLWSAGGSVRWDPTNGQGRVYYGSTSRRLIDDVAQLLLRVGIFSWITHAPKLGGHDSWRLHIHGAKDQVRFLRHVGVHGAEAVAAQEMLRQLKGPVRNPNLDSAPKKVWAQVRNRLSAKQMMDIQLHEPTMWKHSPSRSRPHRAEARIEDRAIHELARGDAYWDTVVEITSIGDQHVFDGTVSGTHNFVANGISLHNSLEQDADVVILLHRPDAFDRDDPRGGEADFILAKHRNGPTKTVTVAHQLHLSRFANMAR
# BJ [8] = test: BJ-TERT fibroblast viability loss – cell-based, RAS-independent, luminescence, dose response (AID 1933); format: functional; conditions: Homo sapiens
# BJ [9] = test: BJ-TERT-LT-ST fibroblast viability loss – cell-based, RAS-independent, luminescence, dose response (AID 1935); format: functional; conditions: Homo sapiens;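 note: BJ fibroblasts immortalized with TERT plus LT and ST oncogenes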
# HEK293 [10] = test: cells; format: functional, cell-based; conditions: Homo sapiens; remark: listed apart in the source
# HEK293 [11] = test: cells; format: functional, cell-based; conditions: Homo sapiens; remark: listed apart in the source
# [12] = target: T3, Microphthalmia-associated transcription factor (Homo sapiens, UniProt O75030); test: reducers of TRPM1 reporter luminescence, concentration series – cell-based, SK-MEL-5, cherry-picked, set 3, MITF inhibitor project, dose response (AID 493073); format: functional;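 note: SK-MEL-5 melanoma cells with luciferase driven by the MITF target TRPM1 promoter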
# T3 sequence (O75030 whole entry): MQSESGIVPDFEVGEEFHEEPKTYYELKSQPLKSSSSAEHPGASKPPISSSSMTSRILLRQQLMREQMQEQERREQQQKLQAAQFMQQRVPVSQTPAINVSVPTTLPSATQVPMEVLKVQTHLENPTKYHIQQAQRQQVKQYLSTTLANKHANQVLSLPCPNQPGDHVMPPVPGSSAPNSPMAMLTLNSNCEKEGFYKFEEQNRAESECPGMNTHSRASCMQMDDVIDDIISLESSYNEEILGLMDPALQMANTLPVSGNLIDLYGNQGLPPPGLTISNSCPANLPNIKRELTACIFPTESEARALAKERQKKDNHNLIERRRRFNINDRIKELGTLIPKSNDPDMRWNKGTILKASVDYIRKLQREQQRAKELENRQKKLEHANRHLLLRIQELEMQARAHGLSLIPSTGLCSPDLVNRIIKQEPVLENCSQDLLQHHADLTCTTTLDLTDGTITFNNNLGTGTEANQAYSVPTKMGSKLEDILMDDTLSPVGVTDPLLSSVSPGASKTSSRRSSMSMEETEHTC
# [13] = microbe, parasite or virus in culture; format: functional; conditions: Mycobacterium tuberculosis
# BJ [14] = test: cells; format: functional, cell-based; conditions: Homo sapiens
# [15] = target: Dual specificity protein phosphatase 3 (Homo sapiens, UniProt P51452); test: SAR VHR1 Fluorescent Assay for In Vitro dose response studies Set 2. [Related pubchem assays (depositor defined):AID1654, AID1661, AID1878]; format: functional
# [16] = target: T4, Dual specificity protein phosphatase 6 (Rattus norvegicus, UniProt Q64346); format: functional;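 note: confirmatory in vitro dose-response testing of MKP-3 inhibition; recombinant His-tagged MKP-3 made in E. coli BL21 with OMFP substrate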
# T4 sequence (Q64346 whole entry): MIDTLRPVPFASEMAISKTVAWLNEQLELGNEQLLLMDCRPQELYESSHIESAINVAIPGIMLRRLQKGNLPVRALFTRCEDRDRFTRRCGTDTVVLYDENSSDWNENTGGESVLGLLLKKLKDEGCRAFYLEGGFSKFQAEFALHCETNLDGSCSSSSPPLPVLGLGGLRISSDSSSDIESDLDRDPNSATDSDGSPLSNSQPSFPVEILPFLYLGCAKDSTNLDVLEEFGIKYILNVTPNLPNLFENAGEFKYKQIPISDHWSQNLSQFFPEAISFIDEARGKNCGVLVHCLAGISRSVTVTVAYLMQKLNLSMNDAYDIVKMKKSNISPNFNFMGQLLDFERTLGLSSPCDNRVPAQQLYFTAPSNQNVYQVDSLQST
# [17] = target: T5, Tyrosine-protein phosphatase non-receptor type 7 (Homo sapiens, UniProt P35236); test: redox-active compounds inhibiting HePTP phosphatase – biochemical, fluorescence, mechanism study (AID 2068); format: functional
# T5 sequence (P35236 whole entry): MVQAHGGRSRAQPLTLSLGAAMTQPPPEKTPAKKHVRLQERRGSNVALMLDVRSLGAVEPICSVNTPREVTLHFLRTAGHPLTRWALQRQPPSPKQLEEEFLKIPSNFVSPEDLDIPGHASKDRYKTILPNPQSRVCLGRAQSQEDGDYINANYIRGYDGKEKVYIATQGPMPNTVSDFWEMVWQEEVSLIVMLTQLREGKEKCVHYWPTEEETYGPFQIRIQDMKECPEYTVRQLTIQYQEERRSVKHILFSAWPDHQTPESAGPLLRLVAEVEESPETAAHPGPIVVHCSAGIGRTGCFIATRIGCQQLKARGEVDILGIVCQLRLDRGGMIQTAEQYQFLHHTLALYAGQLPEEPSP
# Cannabinoid receptor 2 [18] = target: T6, Cannabinoid receptor 2 (Homo sapiens, UniProt P34972); test: SAR analysis of antagonists of the Cannabinoid Receptor 2 using an Image-Based Assay - Set 2. [Related pubchem assays (depositor defined):AID1961, AID1965]; format: functional
# [19] = target: G-protein coupled receptor 55 (Homo sapiens, UniProt Q9Y2T6); test: SAR analysis of selective Agonists of GPR55 using an Image-Based Assay - Set 2. [Related pubchem assays (depositor defined):AID1961, AID1965]; format: functional
# Cannabinoid receptor 1 [20] = target: T7, Cannabinoid receptor 1 (Homo sapiens, UniProt P21554); test: SAR analysis of antagonists of the Cannabinoid Receptor 1 using an Image-Based Assay - Set 3. [Related pubchem assays (depositor defined):AID1961, AID1965]; format: functional
# Cannabinoid receptor 1 [21] = target: T7, Cannabinoid receptor 1; test: SAR analysis of agonists of the Cannabinoid Receptor 1 using an Image-Based Assay - Set 3. [Related pubchem assays (depositor defined):AID1961, AID1965]; format: functional
# [22] = target: T8, G-protein coupled receptor 35 (Homo sapiens, UniProt Q9HC97); test: SAR analysis of Agonists of the GPR35 Receptor using an Image-Based Assay - Set 3. [Related pubchem assays (depositor defined):AID1961, AID1965]; format: functional
# [23] = target: T8, G-protein coupled receptor 35; test: SAR analysis of Antagonists of the GPR35 Receptor using an Image-Based Assay - Set 4. [Related pubchem assays (depositor defined):[…]]; format: functional
# Cannabinoid receptor 2 [24] = target: T6, Cannabinoid receptor 2; test: SAR analysis of agonists of the Cannabinoid Receptor 2 using an Image-Based Assay - Set 2. [Related pubchem assays (depositor defined):AID1961, AID1965]; format: functional
# T8 sequence (Q9HC97 whole entry): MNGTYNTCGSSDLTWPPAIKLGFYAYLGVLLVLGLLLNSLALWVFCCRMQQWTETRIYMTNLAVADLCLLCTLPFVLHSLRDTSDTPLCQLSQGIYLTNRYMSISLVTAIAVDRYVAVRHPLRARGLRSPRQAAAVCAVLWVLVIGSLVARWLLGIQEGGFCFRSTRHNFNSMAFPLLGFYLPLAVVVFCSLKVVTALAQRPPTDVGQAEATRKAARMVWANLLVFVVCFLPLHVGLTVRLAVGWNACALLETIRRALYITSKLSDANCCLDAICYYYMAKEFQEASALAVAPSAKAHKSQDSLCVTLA
# T7 sequence (P21554 whole entry): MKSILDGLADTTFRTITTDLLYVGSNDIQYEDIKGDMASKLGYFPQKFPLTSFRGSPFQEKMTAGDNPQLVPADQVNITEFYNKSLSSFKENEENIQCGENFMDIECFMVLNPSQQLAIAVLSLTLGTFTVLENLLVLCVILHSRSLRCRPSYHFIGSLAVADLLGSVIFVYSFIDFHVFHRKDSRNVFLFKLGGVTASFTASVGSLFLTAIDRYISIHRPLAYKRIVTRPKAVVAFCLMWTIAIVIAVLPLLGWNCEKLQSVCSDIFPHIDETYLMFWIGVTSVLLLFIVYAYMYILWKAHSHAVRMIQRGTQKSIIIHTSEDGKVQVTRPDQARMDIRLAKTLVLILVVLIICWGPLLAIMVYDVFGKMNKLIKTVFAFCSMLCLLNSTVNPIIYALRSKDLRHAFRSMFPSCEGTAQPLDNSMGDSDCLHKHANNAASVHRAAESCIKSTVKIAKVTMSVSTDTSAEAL
# T6 sequence (P34972 whole entry): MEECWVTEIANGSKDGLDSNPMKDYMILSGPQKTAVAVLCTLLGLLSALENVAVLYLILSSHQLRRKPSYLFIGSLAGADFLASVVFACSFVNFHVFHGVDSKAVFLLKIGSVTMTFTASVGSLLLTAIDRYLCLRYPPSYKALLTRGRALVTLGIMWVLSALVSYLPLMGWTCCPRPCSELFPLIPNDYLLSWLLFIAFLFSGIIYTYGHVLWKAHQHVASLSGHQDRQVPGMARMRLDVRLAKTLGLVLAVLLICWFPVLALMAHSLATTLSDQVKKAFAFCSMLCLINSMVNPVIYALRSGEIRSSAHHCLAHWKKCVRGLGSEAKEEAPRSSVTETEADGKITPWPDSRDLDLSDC
# Sequence of Nucleotide-binding oligomerization domain-containing protein 2 (Q9HC29 whole entry, the tested form may be a part): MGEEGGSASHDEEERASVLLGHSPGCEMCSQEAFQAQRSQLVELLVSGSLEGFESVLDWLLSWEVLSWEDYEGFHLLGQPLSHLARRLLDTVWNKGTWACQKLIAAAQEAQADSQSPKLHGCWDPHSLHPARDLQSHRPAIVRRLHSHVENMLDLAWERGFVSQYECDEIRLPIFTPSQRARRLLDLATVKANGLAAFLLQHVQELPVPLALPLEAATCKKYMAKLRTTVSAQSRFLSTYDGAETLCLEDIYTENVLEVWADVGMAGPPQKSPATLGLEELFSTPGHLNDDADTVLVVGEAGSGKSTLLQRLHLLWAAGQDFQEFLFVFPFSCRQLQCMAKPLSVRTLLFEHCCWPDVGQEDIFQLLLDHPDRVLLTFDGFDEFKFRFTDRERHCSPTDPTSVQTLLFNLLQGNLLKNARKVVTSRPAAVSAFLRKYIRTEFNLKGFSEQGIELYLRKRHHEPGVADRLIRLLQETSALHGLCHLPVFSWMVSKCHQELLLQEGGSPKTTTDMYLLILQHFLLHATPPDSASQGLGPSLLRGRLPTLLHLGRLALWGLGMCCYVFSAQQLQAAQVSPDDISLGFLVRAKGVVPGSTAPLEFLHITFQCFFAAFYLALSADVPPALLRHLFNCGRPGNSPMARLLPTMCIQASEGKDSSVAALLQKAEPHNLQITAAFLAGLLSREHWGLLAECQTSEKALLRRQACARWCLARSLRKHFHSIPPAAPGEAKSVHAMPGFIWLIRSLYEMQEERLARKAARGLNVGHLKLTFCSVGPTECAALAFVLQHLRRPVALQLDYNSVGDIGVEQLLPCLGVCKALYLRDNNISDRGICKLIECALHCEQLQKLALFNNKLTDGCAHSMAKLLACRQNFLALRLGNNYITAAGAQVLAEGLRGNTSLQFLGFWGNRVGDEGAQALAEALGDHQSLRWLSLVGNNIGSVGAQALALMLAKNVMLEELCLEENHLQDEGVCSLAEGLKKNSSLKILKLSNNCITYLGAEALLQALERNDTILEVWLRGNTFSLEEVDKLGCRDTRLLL
# Sequence of DNA damage-inducible transcript 3 protein (P35639 whole entry): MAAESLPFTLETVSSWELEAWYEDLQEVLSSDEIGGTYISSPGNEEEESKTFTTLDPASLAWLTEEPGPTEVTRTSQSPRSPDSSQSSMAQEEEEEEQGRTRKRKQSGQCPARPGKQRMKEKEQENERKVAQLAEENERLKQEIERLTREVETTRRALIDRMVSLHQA
# Sequence of Dual specificity protein phosphatase 3 (P51452 whole entry): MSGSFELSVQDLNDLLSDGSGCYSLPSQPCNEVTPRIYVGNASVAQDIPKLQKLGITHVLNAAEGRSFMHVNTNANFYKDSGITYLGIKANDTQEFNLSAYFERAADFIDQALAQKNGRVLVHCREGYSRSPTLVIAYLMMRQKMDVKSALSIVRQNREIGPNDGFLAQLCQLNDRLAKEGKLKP
# Sequence of G-protein coupled receptor 55 (Q9Y2T6 whole entry): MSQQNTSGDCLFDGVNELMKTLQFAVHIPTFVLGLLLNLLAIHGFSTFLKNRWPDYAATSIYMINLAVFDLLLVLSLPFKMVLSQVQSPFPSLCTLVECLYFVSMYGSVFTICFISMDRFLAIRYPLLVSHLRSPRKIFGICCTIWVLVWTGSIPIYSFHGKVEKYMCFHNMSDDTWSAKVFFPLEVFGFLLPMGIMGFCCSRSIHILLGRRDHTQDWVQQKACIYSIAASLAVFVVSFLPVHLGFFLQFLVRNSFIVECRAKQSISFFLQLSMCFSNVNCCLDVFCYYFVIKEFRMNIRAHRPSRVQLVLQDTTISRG
smiles,measurement,setting,value
O=C(CCl)Nc1cn(-c2ccccc2)nc1-c1ccccc1,IC50,HEK293 [1],> 20 µM (inactive)
same,EC50,HEK293 [2],4.78 µM (active)
same,EC50,[3],> 20 µM (inactive)
same,Absolute IC50 (CHOP),[4],10 µM
same,EC50,Protein RecA,6.32 µM (active)
same,IC50,HEK293 [5],9.25 µM (active)
same,EC50,[6],16.2 µM (active)
same,AC50,[7],13.1 µM (active)
same,EC50,BJ [8],8.36 µM (active)
same,EC50,BJ [9],> 150 µM (inconclusive)
same,IC50,HEK293 [10],> 20 µM (inactive)
same,IC50,HEK293 [11],5.28 µM (active)
same,AC50,[12],14.5 µM (active)
same,CC50,[13],6.92 µM (active)
same,EC50,BJ [14],14.4 µM (active)
Cc1ccc(NC(=O)CN2C(=O)S/C(=C\c3ccc(C(=O)O)cc3)C2=O)cc1,IC50,[15],> 100 µM (inactive)
same,IC50,[16],> 100 µM (inactive)
same,IC50,[17],14.4 µM (active)
COc1ccc(S(=O)(=O)N2CCOCC2)cc1NC(=O)c1ccc(OC(F)F)cc1,IC50,Cannabinoid receptor 2 [18],> 32 µM (inactive)
same,EC50,[19],> 32 µM (inactive)
same,IC50,Cannabinoid receptor 1 [20],> 32 µM (inactive)
same,EC50,Cannabinoid receptor 1 [21],> 32 µM (inactive)
same,EC50,[22],> 32 µM (inactive)
same,IC50,[23],> 32 µM (inactive)
same,EC50,Cannabinoid receptor 2 [24],> 32 µM (inactive)
